Assay results published in ChEMBL document CHEMBL5143631, “nTZDpa (non-thiazolidinedione PPARγ partial agonist) derivatives retain antimicrobial activity without improving renal toxicity” (Bioorg Med Chem Lett, 2022).
Converted amounts (≈) assume the structure as drawn.

Tests used:
[1] = Toxicity in renal cells (unknown origin) assessed as cell viability at 64 ug/ml relative to control; assay type: cell-based; details: at 64 µg/mL, read-out: Activity
Staphylococcus aureus = assay: Antibacterial activity against Staphylococcus aureus assessed as inhibition of bacterial growth; assay type: functional

MIC (Staphylococcus aureus)	Compound	viability at 64 ug/ml [1]
–	CN[C@H](CC(C)C)C(=O)N[C@H]1C(=O)N[C@@H](CC(N)=O)C(=O)N[C@H]2C(=O)N[C@H]3C(=O)N[C@H](C(=O)N[C@H](C(=O)O)c4cc(O)cc(O)c4-c4cc3ccc4O)[C@H](O)c3ccc(c(Cl)c3)Oc3cc2cc(c3O[C@@H]2O[C@H](CO)[C@@H](O)[C@H](O)[C@H]2O[C@H]2C[C@](C)(N)[C@H](O)[C@H](C)O2)Oc2ccc(cc2Cl)[C@H]1O [VANCOMYCIN]	65%
32 µg/mL (≈ 52.5 µM)	O=C(O)CCNC(=O)c1c(Oc2ccc(I)cc2)c2cc(Cl)ccc2n1Cc1ccc(Cl)cc1	15%
1 µg/mL (≈ 1.86 µM)	O=C(O)c1c(Oc2cccc(I)c2)c2cc(Cl)ccc2n1Cc1ccc(Cl)cc1	10%
16 µg/mL (≈ 30.5 µM)	O=C(O)c1c(Oc2ccc(I)cc2)c2cc(Cl)ccc2n1-c1ccc(Cl)cc1	20%
8 µg/mL (≈ 18.3 µM)	Clc1ccc(Cn2c(-c3nnn[nH]3)c(Oc3ccccc3)c3cc(Cl)ccc32)cc1	20%
4 µg/mL (≈ 6.99 µM)	O=C(O)c1c(Oc2ccc(I)cc2)c2cc(Cl)ccc2n1Cc1ccc(Cl)c(Cl)c1	15%
8 µg/mL (≈ 13.7 µM)	O=C(O)c1c(Oc2cccc(I)c2)c2cc(Cl)ccc2n1Cc1ccc(Br)cc1	15%
8 µg/mL (≈ 15.5 µM)	Cc1ccc(Cn2c(C(=O)O)c(Oc3ccc(I)cc3)c3cc(Cl)ccc32)cc1	15%
2 µg/mL (≈ 3.43 µM)	O=C(O)c1c(Oc2ccc(I)cc2)c2cc(Cl)ccc2n1Cc1ccc(Br)cc1	15%
> 64 µg/mL	Clc1ccc(Cn2c(-c3nnn[nH]3)c(Oc3ccc(I)cc3)c3cc(Cl)ccc32)cc1	25%
1 µg/mL (≈ 1.79 µM)	CC(C)(C)c1ccc(Cn2c(C(=O)O)c(Oc3ccc(I)cc3)c3cc(Cl)ccc32)cc1	10%
4 µg/mL (≈ 8.28 µM)	O=C(O)CCNC(=O)c1c(Oc2ccccc2)c2cc(Cl)ccc2n1Cc1ccc(Cl)cc1	20%

Compound	MIC (Staphylococcus aureus)	viability at 64 ug/ml [1]
O=C(O)c1c(Oc2ccc(I)cc2)c2cc(Cl)ccc2n1Cc1ccc(Cl)cc1	1 µg/mL (≈ 1.86 µM)	15%
